Laboratory results: US11401264B2, “Heterocyclic compound” (Orizuru Therapeutics, Inc., priority 2018, dated 2022)

System: cardiomyocytes from double knock-in human iPS cell lines (mCherry at TNNI3 locus)
Test: Experimental Example 1: mCherry (TNNI3 reporter) immunostaining measured by high contents screening
Format: cell-based
Set-up: key to average fluorescent intensity (at 30 μM): —: The symbol in Table 2 means that the average fluorescent intensity cannot be evaluated due to cell decrease
Conditions: read on 8th day, Alexa 647 anti-mCherry, control well 797; for average fluorescent intensity (at 1 μM): test compound 1 μM added on 3rd and 6th culture days; for average fluorescent intensity (at 30 μM): test compound 30 μM added on 3rd and 6th culture days
Procedure: For detection of cardiomyocyte maturation, double knock-in human iPS cell lines, in which reporter protein sequences, EmGFP (Sequence Number 1) and mCherry (Sequence Number 2) were inserted into gene loci for TNNI1 and TNNI3, respectively, were prepared (the human iPS cells were prepared from episomal vector (loaded gene; OCT3/4, KLF4, SOX2, L-MYC, LIN28, mouse p53DD) using PBMC (LP_167, Sample ID: 20130318) purchased from CTL (reference literature; Okita K, et al. Stem Cells. 2012 Nov. 29. doi: 10.1002/stem.1293)).
The maintenance culture of the above-mentioned reporter iPS cell lines was carried out by a conventional method (Okita K, et al. Stem Cells. 2012 Nov. 29. doi: 10.1002/stem.1293).
For differentiation induction into cardiomyocytes, the reporter iPS cell lines were treated with 0.5×TrypLE select (Life Technologies, diluted in 1/2 with 0.5 mM EDTA/PBS) for 4 to 5 minutes, and the cells were exfoliated using a cell scraper (IWAKI), and then dissociated into the single cell by pipetting. The medium was removed by centrifugation (1,000 rpm, 5 min), and the obtained cells were seeded on a bioreactor (ABLE) by 1×10^7 cells per 30 mL of the bioreactor, and then cultured in a medium prepared by adding 1% L-glutamine, transferrin 150 μg/mL, ascorbic acid 50 μg/mL (Sigma), monothioglycerol 4×10^−4 M, 10 μM Rock inhibitor (Y-27632), 2 ng/mL BMP4 (R&D) and 0.5% Matrigel (Growth Factor Reduced) to a medium after removal of solution C from StemFit AK02 (AJINOMOTO AK02, 400 mL of solution A and 100 mL of B solution, total 500 mL), at 37° C., under 5% oxygen condition (55 rpm, stirred suspension culture method) to form embryoid bodies (0 day).
Next day (1st day), 9 μL (final concentration 3 ng/mL) of 10 μg/mL activin A, 15 μL (final concentration 5 ng/mL) of 10 μg/mL bFGF and […] (final concentration 10 ng/mL) of 10 μg/mL BMP4 were added to the bioreactor, and the cells were cultured at 37° C. for additional 2 days, under 5% oxygen condition.
Then (3rd day), the obtained embryoid bodies were collected in a 50 mL centrifuge tube, and then subjected to centrifugation (200 g, 1 min). The medium was removed, and the embryoid bodies were cultured in a medium prepared by adding 1% L-glutamine, transferrin 150 μg/mL, ascorbic acid 50 μg/mL (Sigma), monothioglycerol 4×10^−4 M, 10 ng/mL VEGF, 1 μM IWP-3, 0.6 μM dorsomorphin and 5.4 μM SB431542 to a medium after removal of solution C from StemFit AK02 (AJINOMOTO AK02, 400 mL of solution A and 100 mL of B solution, total 500 mL), at 37° C. for 3 days, under 5% oxygen condition (55 rpm, stirred suspension culture method).
Then (6th day), the bioreactor was left to stand to precipitate the embryoid bodies, and 80 to 90% of the medium was removed. A medium prepared by adding 1% L-glutamine, transferrin 150 μg/mL, ascorbic acid 50 μg/mL (Sigma), monothioglycerol […] and 5 ng/mL VEGF to a medium after removal of solution C from StemFit AK02 (AJINOMOTO AK02, 400 mL of solution A and 100 mL of B solution, total 500 mL) was added to the bioreactor so that the total volume became 30 mL, and the embryoid bodies were cultured for 8 days, at 37° C., under 5% oxygen condition (55 rpm, stirred suspension culture method). During the culture, the medium was replaced with a medium under the same conditions every 2 to 3 days.
14th Day after the start of the differentiation induction, the embryoid bodies were treated with 2 mg/mL collagenase type I (Sigma) for 2 hr, and then with 0.25% trypsin/EDTA (Invitrogen) for 10 min. 50% FBS/IMDM (Thermo Fisher Science) was added thereto, and the embryoid bodies were dissociated into the single cell by pipetting, and then subjected to centrifugation (1,000 rpm, 5 minutes). […]

SMILES | average fluorescent intensity (at 1 μM) | average fluorescent intensity (at 30 μM)
O=C1c2ccc(N3CCCCC3)cc2CN1c1ccc2[nH]c(-c3ccccc3)nc2c1 [Example 1, 2-(2-phenyl-1H-benzimidazol-5-yl)-5-(piperidin-1-yl)isoindolin-1-one] | 1098 | —
O=C1c2ccc(N3CCCCC3)cc2CN1c1ccc2[nH]c(Cc3ccccc3)nc2c1 [Example 2, 2-(2-benzyl-1H-benzimidazol-5-yl)-5-(piperidin-1-yl)isoindolin-1-one] | 943 | 1073
O=C1c2ccc(N3CCCCC3)cc2CN1c1ccc2[nH]c(-c3ccc(OCc4ccccc4)cc3)nc2c1 [Example 3, 2-(2-(4-(benzyloxy)phenyl)-1H-benzimidazol-5-yl)-5-(piperidin-1-yl)isoindolin-1-one] | 933 | 1441
COC(=O)COc1ccc(-c2nc3cc(N4Cc5cc(N6CCCCC6)ccc5C4=O)ccc3[nH]2)cc1 [Example 5, methyl (4-(5-(l-oxo-5-(piperidin-1-yl)-1,3-dihydro-2H-isoindol-2-yl)-1H-benzimidazol-2-yl)phenoxy)acetate] | 1078 | —
O=C(O)COc1ccc(-c2nc3cc(N4Cc5cc(N6CCCCC6)ccc5C4=O)ccc3[nH]2)cc1 [Example 6, (4-(5-(l-oxo-5-(piperidin-1-yl)-1,3-dihydro-2H-isoindol-2-yl)-1H-benzimidazol-2-yl)phenoxy)acetic acid] | 974 | 987
COc1ccc(-c2nc3cc(N4Cc5ccccc5C4=O)ccc3[nH]2)cc1 [Example 7, 2-(2-(4-methoxyphenyl)-1H-benzimidazol-5-yl)isoindolin-1-one] | 859 | 1631
O=C(COc1ccc(-c2nc3cc(N4Cc5cc(N6CCCCC6)ccc5C4=O)ccc3[nH]2)cc1)NC/C=C/CCc1ccccc1 [Example 9, 2-(4-(5-(1-oxo-5-(piperidin-1-yl)-1,3-dihydro-2H-isoindol-2-yl)-1H-benzimidazol-2-yl)phenoxy)-N-((2E)-5-phenylpent-2-en-1-yl)acetamide] | 948 | —
O=C(COc1ccc(-c2nc3cc(N4Cc5cc(N6CCCCC6)ccc5C4=O)ccc3[nH]2)cc1)NCCNc1cccc(F)c1 [Example 10, N-(2-((3-fluorophenyl)amino)ethyl)-2-(4-(5-(1-oxo-5-(piperidin-1-yl)-1,3-dihydro-2H-isoindol-2-yl)-1H-benzimidazol-2-yl)phenoxy)acetamide] | 1032 | —
CN(CCc1ccccc1)C(=O)CNC(=O)COc1ccc(-c2nc3cc(N4Cc5cc(N6CCCCC6)ccc5C4=O)ccc3[nH]2)cc1 [Example 11, N-methyl-N^~2^~-((4-(5-(1-oxo-5-(piperidin-1-yl)-1,3-dihydro-2H-isoindol-2-yl)-1H-benzimidazol-2-yl)phenoxy)acetyl)-N-(2-phenylethyl)glycinamide] | 1182 | —
O=C(COc1ccc(-c2nc3cc(N4Cc5cc(N6CCCCC6)ccc5C4=O)ccc3[nH]2)cc1)NCCCc1ccncc1 [Example 12, 2-(4-(5-(1-oxo-5-(piperidin-1-yl)-1,3-dihydro-2H-isoindol-2-yl)-1H-benzimidazol-2-yl)phenoxy)-N-(3-(pyridin-4-yl)propyl)acetamide] | 1675 | 1226
CN(C)C(=O)C(NC(=O)COc1ccc(-c2nc3cc(N4Cc5cc(N6CCCCC6)ccc5C4=O)ccc3[nH]2)cc1)c1ccccc1 (stereo not shown) [Example 13, N,N-dimethyl-2-(((4-(5-(1-oxo-5-(piperidin-1-yl)-1,3-dihydro-2H-isoindol-2-yl)-1H-benzimidazol-2-yl)phenoxy)acetyl)amino)-2-phenylacetamide] | 1212 | —
